Test results reported in patent US9061352B2, “Dry powder formulations and methods for treating pulmonary diseases” (priority 2010, dated 2015).

Experiments:
Type in all cases: physicochemical
[1] = Heat of solution in HBSS buffer; settings: for ΔH (kJ/mol), Average / ΔH (kcal/mol), Average / heat of solution ΔH: HBSS buffer; for ΔH (kJ/mol), Average / ΔH (kcal/mol), Average: per mol Ca for all powders except leucine (mol Leu); for ΔH (kJ/mol), Average / ΔH (kcal/mol), Average / Q (cal), Average / ΔT (deg. C.), Average: experiment #1; for Q (cal), Average / ΔT (deg. C.), Average: dissolution in HBSS buffer
[2] = Capsule emitted powder mass (CEPM) from dry powder inhaler; settings: for average CEPM, % of capsule fill weight: 9.2 Joules (60 L/min for 2 L), high resistance RS-01
Excerpt: (§1) Volume median diameter can also be measured using a method where the powder is emitted from a dry powder inhaler device. The equipment consisted of a Spraytec laser diffraction particle size system (Malvern, Worcestershire, UK), “Spraytec”. Powder formulations were filled into size 3 HPMC capsules (Capsugel V-Caps) by hand with the fill weight measured gravimetrically using an analytical balance (Mettler Tolerdo XS205). A capsule based passive dry powder inhalers (RS-01 Model 7, High resistance Plastiape S.p.A.) was used which had specific resistance of 0.036 kPa^1/2 LPM^−1. Flow rate and inhaled volume were set using a timer controlled solenoid valve with flow control valve (TPK2000, Copley Scientific). Capsules were placed in the dry powder inhaler, punctured and the inhaler sealed to the inlet of the laser diffraction particle sizer. The steady air flow rate through the system was initiated using the TPK2000 and the particle size distribution was measured via the Spraytec at 1 kHz for at least 2 seconds and up to the total inhalation duration. Particle size distribution parameters calculated included the volume median diameter (Dv50) and the geometric standard deviation (GSD) and the fine particle fraction (FPF) of particles less than 5 micrometers in diameter. At the completion of the inhalation duration, the dry powder inhaler was opened, the capsule removed and re-weighed to calculate the mass of powder that had been emitted from the capsule during the inhalation duration (capsule emitted powder mass or CEPM).
A measure of the emission properties of the powders was determined by using the information obtained from the Andersen Cascade Impactor tests. The filled capsule weight was recorded at the beginning of the run and the final capsule weight was recorded after the completion of the run. The difference in weight represented the amount of powder emitted from the capsule (CEPM or capsule emitted powder mass). The emitted dose was calculated by dividing the amount of powder emitted from the capsule by the total initial particle mass in the capsule. While the standard CEPM was measured at 60 L/min, it was also measured at 15 L/min, 20 L/min, or 30 L/min.
Powder formulations were filled into size 3 HPMC capsules (Capsugel V-Caps) by hand with the fill weight measured gravimetrically using an analytical balance (Mettler Tolerdo XS205). […] Two capsule based passive dry powder inhalers (RS-01 Model 7, Low resistance Plastiape S.p.A. and RS-01 Model 7, High resistance Plastiape S.p.A.) were used which had specific resistances of 0.020 and 0.036 kPa1/2/LPM which span the typical range of dry powder inhaler resistance. Flow rate and inhaled volume were set using a timer controlled solenoid valve with flow control valve (TPK2000, Copley Scientific). Capsules were placed in the appropriate dry powder inhaler, punctured and the inhaler sealed to the inlet of the laser diffraction particle sizer (Spraytec, Malvern). The steady air flow rate through the system was initiated using the TPK2000 and the particle size distribution was measured via the Spraytec at 1 kHz for the durations at least 2 seconds and up to the total inhalation duration. Particle size distribution parameters calculated included the volume median diameter (Dv50) and the geometric standard deviation (GSD) and the fine particle fraction (FPF) of particles less than 5 micrometers in diameter. At the completion of the inhalation duration, the dry powder inhaler was opened, the capsule removed and re-weighed to calculate the mass of powder that had been emitted from the capsule during the inhalation duration. At each testing condition, 5 replicate capsules were measured and the results of Dv50, FPF and capsule emitted powder mass (CEPM) were averaged. […]

[3] = Emitted geometric particle size from dry powder inhaler by Spraytec (Dv50, GSD, FPF<5 μm); settings: for average Dv50: 9.2 Joules; for Dv50: measured lower energies
Excerpt: as §1
The previous description of the use of the Spraytec was for what is described as its “closed bench configuration”. Alternatively, the Spraytec can be used in its “open bench configuration”. In the open bench configuration, capsules were placed in the dry powder inhaler, punctured and the inhaler sealed inside a cylinder. The cylinder was connected to a positive pressure air source with steady air flow through the system again measured with a mass flow meter and its duration controlled with a timer controlled solenoid valve. The exit of the dry powder inhaler was exposed to room pressure and the resulting aerosol jet passed through the laser of the diffraction particle sizer (Spraytec) in its open bench configuration before being captured by a vacuum extractor. The steady air flow rate through the system was initiated using the solenoid valve and the particle size distribution was measured via the Spraytec at 1 kHz for the duration of the single inhalation maneuver with a minimum of 2 seconds, as in the closed bench configuration. When data are reported in the examples as being measured by the Spraytec, they are from the closed bench configuration unless otherwise noted.
The volume median diameter (Dv50) of the powder after it emitted from a dry powder inhaler, which may also be referred to as volume median geometric diameter (VMGD), was determined using a laser diffraction technique via the Spraytec diffractometer (Malvern, Inc., Worcestershire, UK). Powder was filled into size 3 capsules (V-Caps, Capsugel) and placed in a capsule based dry powder inhaler (RS01 Model 7 High resistance, Plastiape, Italy), or DPI, which was connected with an airtight seal to the inhaler adapter of the Spraytec. A steady airflow rate was drawn through the DPI typically at 60 L/min for a set duration, typically of 2 seconds controlled by a timer controlled solenoid (TPK2000, Copley, Scientific, UK). Alternatively, the airflow rate drawn through the DPI was sometimes run at 15 L/min, 20 L/min, or 30 L/min. The outlet aerosol then passed perpendicularly through the laser beam as an internal flow. The resulting geometric particle size distribution of the aerosol was calculated from the software based on the measured scatter pattern on the photodetectors with samples typically taken at 1000 Hz for the duration of the inhalation. The Dv50, GSD, FPF<5.0 μm measured were then averaged over the duration of the inhalation. […]

[4] = Volume median diameter (x50) and dispersibility ratios by HELOS/RODOS laser diffraction
Experimental: Volume median diameter (×50 or Dv50), which may also be referred to as volume median geometric diameter (VMGD), was determined using a laser diffraction technique. The equipment consisted of a HELOS diffractometer and a RODOS dry powder disperser (Sympatec, Inc., Princeton, N.J.). The RODOS disperser applies a shear force to a sample of particles, controlled by the regulator pressure (typically set at 1.0 bar) of the incoming compressed dry air. The pressure settings may be varied to vary the amount of energy used to disperse the powder. For example, the regulator pressure may be varied from 0.2 bar to 4.0 bar; and the orifice ring pressure may be varied from 5.00 mbar to 115.00 mbar. Powder sample is dispensed from a microspatula into the RODOS funnel. The dispersed particles travel through a laser beam where the resulting diffracted light pattern produced is collected, typically using an R1 lens, by a series of detectors. The ensemble diffraction pattern is then translated into a volume-based particle size distribution using the Fraunhofer diffraction model, on the basis that smaller particles diffract light at larger angles. Using this method geometric standard deviation (GSD) for the volume mean geometric diameter was also determined.

[5] = Fine particle fraction by two-stage collapsed Andersen Cascade Impactor (ACI-2); settings: spray dried from 70% ethanol, 50 g/L
[6] = RS.01.HR, fill 25 mg, 15 LPM, 4 s, 0.29 J
[7] = RS.01.HR, fill 25 mg, 20 LPM, 3 s, 0.51 J
[8] = RS.01.HR, fill 25 mg, 30 LPM, 2 s, 1.15 J
[9] = RS.01.HR, fill 25 mg, 60 LPM, 2 s, 9.18 J
[10] = RS.01.HR, fill 40 mg, 15 LPM, 4 s, 0.29 J
[11] = RS.01.HR, fill 40 mg, 20 LPM, 3 s, 0.51 J
[12] = RS.01.HR, fill 40 mg, 30 LPM, 2 s, 1.15 J
[13] = RS.01.HR, fill 40 mg, 60 LPM, 2 s, 9.18 J
[14] = RS.01.LR, fill 25 mg, 60 LPM, 2 s, 2.85 J
[15] = RS.01.LR, fill 40 mg, 60 LPM, 2 s, 2.85 J
[16] = all measured energies below 9.2 Joules, 25 and 40 mg fill

CC(C)C[C@H](N)C(=O)O [Leucine]
ΔH (kJ/mol), Average [1]: -6 kJ/mol
ΔH (kcal/mol), Average [1]: -1.5 kcal/mol
Q (cal), Average [1]: 0.37 cal
ΔT (deg. C.), Average [1]: 0.003 deg. C.

albuterol sulfate [Micronized Albuterol]
average CEPM, % of capsule fill weight ([2]; 25 mg fill): 93%
average CEPM, % of capsule fill weight ([2]; 40 mg fill): 84%
Mean CEPM [2, 6]: 3.12 mg
Mean CEPM [2, 7]: 5.00 mg
Mean CEPM [2, 8]: 7.08 mg
Mean CEPM [2, 9]: 23.18 mg
Mean CEPM [2, 10]: 2.43 mg
Mean CEPM [2, 11]: 4.97 mg
Mean CEPM [2, 12]: 8.55 mg
Mean CEPM [2, 13]: 33.40 mg
Mean CEPM [2, 14]: 15.28 mg
Mean CEPM [2, 15]: 18.88 mg
CEPM [2, 16]: below 10 mg
CEPM, % of capsule fill weight [2, 16]: < 30%
average Dv50 ([3]; 25 mg fill): 1.8 μm
Dv50 ([3]; 25 mg fill): 3.9 μm
average Dv50 ([3]; 40 mg fill): 1.6 μm
Dv50 ([3]; 40 mg fill): 3.1 μm
Mean Dv(50) (μm) [3, 6]: 16.76 μm
Mean FPF, % <5 μm [3, 6]: 13.00%
Mean Dv(50) (μm) [3, 7]: 8.40 μm
Mean FPF, % <5 μm [3, 7]: 32.10%
Mean Dv(50) (μm) [3, 8]: 3.86 μm
Mean FPF, % <5 μm [3, 8]: 59.44%
Mean Dv(50) (μm) [3, 9]: 1.77 μm
Mean FPF, % <5 μm [3, 9]: 81.65%
Mean Dv(50) (μm) [3, 10]: 17.63 μm
Mean FPF, % <5 μm [3, 10]: 10.73%
Mean Dv(50) (μm) [3, 11]: 6.34 μm
Mean FPF, % <5 μm [3, 11]: 42.24%
Mean Dv(50) (μm) [3, 12]: 3.13 μm
Mean FPF, % <5 μm [3, 12]: 67.18%
Mean Dv(50) (μm) [3, 13]: 1.60 μm
Mean FPF, % <5 μm [3, 13]: 84.30%
Mean Dv(50) (μm) [3, 14]: 2.57 μm
Mean FPF, % <5 μm [3, 14]: 75.01%
Mean Dv(50) (μm) [3, 15]: 2.62 μm
Mean FPF, % <5 μm [3, 15]: 73.98%

[Cl-].[Cl-].[Mg+2] [Pure magnesium chloride, magnesium chloride]
median volume particle size ([4]; spray dried from 70% ethanol, 50 g/L): 4 microns
median particle size ([4]; spray dried from D.I. water, 20 g/L): 21 microns
fine particle fraction less than 5.6 microns [5]: 19%

O.O.[Ca+2].[Cl-].[Cl-] [CaCl2•2H2O]
ΔH (kJ/mol), Average [1]: -50.5 kJ/mol
ΔH (kcal/mol), Average [1]: -12.1 kcal/mol
Q (cal), Average [1]: 2.93 cal
ΔT (deg. C.), Average [1]: 0.024 deg. C.

O.O.[Ca+2].[Cl-].[Cl-] [raw calcium chloride dihydrate, calcium chloride dihydrate]
heat of solution ΔH ([1]; first experiment): -12.1 kcal/mol
heat of solution ΔH ([1]; second experiment): -8.4 kcal/mol
